The test system of data set [1] is human pancreatic cancer PC-07-0067 model. Kind of data set: Anti-tumor efficacy in pancreatic cancer PC-07-0067 subcutaneous xenograft (PDX) model (Example 4). Type of data set: in vivo, BALB/c nude mice. As to conditions: TRODELVY 3 mg/kg IV BIW. The text has this:
Establishment of PDX model: The human pancreatic cancer PC-07-0067 model was initially established from a surgically resected clinical sample, which was designated as P0 after being inoculated into nude mice. Inoculation of tumor tissue from P0 into the next generation of mice is referred to as P1, and so on for subsequent serial passages in nude mice. FP3 tumors were resuscitated from P2 generation tissue, and the next generation from FP3 was designated as FP4, and so on.
Tumor Inoculation: A 20-30 mm^3 PC-07-0067 FP5 tumor tissue piece was subcutaneously inoculated on the right flank of each mouse for tumor growth. The mice were randomized for dosing when the mean tumor volume reached approximately 100-150 mm^3.
Experimental indicator: The experimental indicator is to examine whether tumor growth is inhibited, delayed or cured. Tumor diameter is measured with a vernier caliper twice a week. The formula for calculating tumor volume is: V = 0.5a × b^2, a and b represent the long diameter and short diameter of the tumor, respectively.
The anti-tumor efficacy of a compound is evaluated using the TGI(%) or tumor proliferation rate (T/C)(%). TGI(%) reflects the rate of tumor growth inhibition.
Tumor proliferation rate T/C (%): The calculation formula is as follows: T/C(%) = Ti/Vi × 100 %, wherein Vi is the mean tumor volume of the solvent control group at a certain measurement, and Ti is the mean tumor volume of the dosing group at the same measurement.

A further data set concerns PC-07-006 model. Put plainly: Anti-human IgG secondary antibody staining of TRODELVY bound to tumor cells in vivo (Example 5). Also on record: species or system BALB/c nude mice. As to conditions: tissue samples from Example 4. The text has this:
The experimental method was the same as in Example 3. The experimental tissue samples were from Example 4. The anti-human IgG secondary antibody was able to recognize the binding of TRODELVY to tumor cells in vivo. […] Example 6: In vivo pharmacological study of the tumor infiltration level of test article, fluorescein Cy5.5-labeled Hanquyou( ? ) antibody (H-Cy5.5), in a subcutaneous xenograft tumor model of human gastric cancer NCI-N87 cells in Balb/c-nude mice after administration of IN10018

The term T/C denotes the ratio of treated to control. Usually TGI stands for the reduction of tumour growth relative to the control group. Take TRODELVY: the T/C in data set [1] (after 14 days of dosing, T/C = Ti/Vi, IN10018 12.5 mg/kg PO QD) came to 27.95%. In data set [1] (after 14 days of dosing, IN10018 12.5 mg/kg PO QD), the TGI stood at 78.91%. Further, in data set [1] (day 14, IN10018 12.5 mg/kg PO QD (tartrate salt weighed)), the mean tumor volumes is recorded as 423 mm^3. In addition, in the data set with PC-07-006 model, the antibody-tumor cell binding result is “significant antibody-tumor cell binding”.

The record behind these values is patent EP4691487A1, “METHOD FOR INCREASING CONCENTRATION OF MACROMOLECULAR DRUG IN TUMOR TISSUE” (priority 2023, dated 2024).
